For assay [1], the target named is T1, human ferroportin (SLC40A1) (Homo sapiens, UniProt Q9NP59).
T1 sequence (Q9NP59 1-571): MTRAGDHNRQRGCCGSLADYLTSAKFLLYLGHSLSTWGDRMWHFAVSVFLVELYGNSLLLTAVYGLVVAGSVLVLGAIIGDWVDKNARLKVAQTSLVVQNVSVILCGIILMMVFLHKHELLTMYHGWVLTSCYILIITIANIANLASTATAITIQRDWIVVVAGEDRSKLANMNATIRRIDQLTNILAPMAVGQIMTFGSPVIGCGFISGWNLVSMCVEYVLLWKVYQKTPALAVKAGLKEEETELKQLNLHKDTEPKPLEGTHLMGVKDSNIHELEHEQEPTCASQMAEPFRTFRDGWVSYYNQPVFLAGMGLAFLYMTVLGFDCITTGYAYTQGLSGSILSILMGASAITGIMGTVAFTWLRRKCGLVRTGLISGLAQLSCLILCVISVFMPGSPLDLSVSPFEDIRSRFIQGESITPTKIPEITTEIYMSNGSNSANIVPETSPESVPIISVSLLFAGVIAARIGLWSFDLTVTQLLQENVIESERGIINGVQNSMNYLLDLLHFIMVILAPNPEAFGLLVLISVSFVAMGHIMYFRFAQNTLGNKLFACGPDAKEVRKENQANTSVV
As to the kind of experiment: FPN activity assay: internalization/degradation of ferroportin-GFP in stably transfected HEK293 cells (decrease in GFP fluorescence). The format is cell-based. The following applies: compound incubated at least 18 hours. An outline of the steps:
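HEK293 cells stably expressing human ferroportin C-terminally fused to GFP were exposed to peptides for at least 18 h, at most 24 h. Internalization/degradation read as loss of GFP fluorescence; EC50 derived. Retro-inverse mini-hepcidin peptides used as control standards.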

Another assay addresses T2, ferroportin (Homo sapiens, UniProt Q9NP59).
T2 sequence (Q9NP59 1-571): T1 sequence (Q9NP59 1-571)
As to the kind of experiment: T47D cell-based ferroportin internalization assay in presence of 0.5% mouse serum albumin (MSA). To be noted: T47D cells. Here is the method: The potency of the peptides in causing ferroportin internalization was evaluated in a T47D cell-based assay. […] In this internalization assay, the potency of the test peptides was evaluated in presence of serum albumin which is the main protein component in the blood. T47D cells were maintained in RPMI media (containing required amount of fetal bovine serum) and regularly sub-cultured. In preparation for the assay, the cells were seeded in 96-well plates at a density of 80-100 k cells per well in 100 ul volume and allowed to rest overnight. On the next day, test peptides were first prepared in dilution series (10-point series, starting concentration of ˜5 μM, typically 3-4×fold dilution steps), all with 0.5% mouse serum albumin (MSA purified from mouse serum; Sigma, A3139). The test peptide dilution series were allowed to incubate at room temperature for 30 min. Then the media was aspirated from the 96-well cell plate and test peptide dilution series were added. After 1 hr incubation, the media with test peptides was aspirated out and AF647-conjugated detection peptide was added at fixed concentration of 200 nM. The AF647-conjugated detection peptide was previously verified to bind to ferroportin and cause its internalization. The cells were washed again after a 2 hr incubation in preparation for flow cytometry analysis. The Median Fluorescence Intensity (MFI) of the AF647-positive population was measured (after removing dead cells and non-singlets from the analysis). The MFI values were used to generate a dose-response curve and obtain IC50 potencies for the test peptides. The IC50 potencies were calculated by using 4-parameter non-linear fitting function in Graphpad Prism (Table 6A).

Each structure is given as a SMILES string. Numbered stars: 1 amine (or outer) side, 2 acyl side, 3 side chain; on linkers, the order of the positions; unused ones are H or OH. Bridge positions count the residues as written; N and C are the ends. Square brackets hold non-standard residues; d marks the D form. Side chains are listed from the residue outwards. Peptide text beside a SMILES is read from it. * marks the point of attachment. Dip = N[C@H](C(=O)O)C(c1ccccc1)c1ccccc1; Hag = O=C([C@H](CCC=[*:3])N[*:1])[*:2]; Palmitoyl = CCCCCCCCCCCCCCCC(=O)*; tBuAla = CC(C)(C)C[C@H](N)C(=O)O; β3hF = N[C@H](CC(=O)O)Cc1ccccc1; Isovaleryl = CC(C)CC(=O)*; Ahx = NCCCCCC(=O)O

For orientation: IC50 means the point on the concentration scale where inhibition reaches its midpoint. Take `CCCCCCCCCCCCCCCC(=O)NCCCCCC(=O)NCCCC[C@H](NC(=O)C[C@H](Cc1ccccc1)NC(=O)[C@@H]1CC=CCCC[C@H](NC(=O)CC(C)C)C(=O)N[C@@H]([C@@H](C)O)C(=O)N[C@@H](Cc2c[nH]cn2)C(=O)N[C@@H](C(c2ccccc2)c2ccccc2)C(=O)N2CCC[C@H]2C(=O)N[C@@H](C)C(=O)N[C@@H]([C@@H](C)CC)C(=O)N1)C(=O)N[C@H](CCCCN)C(N)=O` [Compd 30]: the IC50 (in assay [1]; at ferroportin) was 1 to 10 nM throughout.
With `CCCCCCCCCCCCCCCC(=O)NCCCCCC(=O)NCCCC[C@@H](C(=O)N[C@H](CCCCN)C(N)=O)N(C)C(=O)C[C@H](Cc1ccccc1)NC(=O)[C@@H]1CCC=CCC[C@H](NC(=O)CC(C)C)C(=O)N[C@@H]([C@@H](C)O)C(=O)N[C@@H](Cc2c[nH]cn2)C(=O)N[C@@H](C(c2ccccc2)c2ccccc2)C(=O)N2CCC[C@H]2C(=O)N[C@@H](C)C(=O)N[C@@H]([C@@H](C)CC)C(=O)N1` [Compd 55], the IC50 is 1 to 10 nM in assay [1] and 10 to 100 nM at ferroportin.
For `CCCCCCCCCCCCCCCC(=O)NCCCCCC(=O)NCCCC[C@H](NC(=O)[C@H](Cc1ccccc1)N(C)C(=O)[C@@H]1CCC=CCC[C@H](NC(=O)CC(C)C)C(=O)N[C@@H]([C@@H](C)O)C(=O)N[C@@H](Cc2c[nH]cn2)C(=O)N[C@@H](C(c2ccccc2)c2ccccc2)C(=O)N2CCC[C@H]2C(=O)N[C@@H](C)C(=O)N[C@@H]([C@@H](C)CC)C(=O)N1)C(=O)N[C@H](CCCCN)C(N)=O` [Compd 54] the same measures were 10 to 100 nM and 100 to 500 nM.
The corresponding values for `CCCCCCCCCCCCCCCC(=O)NCCCCCC(=O)NCCCC[C@H](NC(=O)C[C@H](Cc1ccccc1)NC(=O)[C@@H]1CCCC=CCC[C@H](NC(=O)CC(C)C)C(=O)N[C@@H]([C@@H](C)O)C(=O)N[C@@H](Cc2c[nH]cn2)C(=O)N[C@@H](C(c2ccccc2)c2ccccc2)C(=O)N2CCC[C@H]2C(=O)N[C@@H](C)C(=O)N[C@@H]([C@@H](C)CC)C(=O)N1)C(=O)N[C@H](CCCCN)C(N)=O` [Compd 31] are 10 to 100 nM and 10 to 100 nM.
The corresponding values for `CCCCCCCCCCCCCCCC(=O)NCCCCCC(=O)NCCCC[C@H](NC(=O)C[C@H](Cc1ccccc1)NC(=O)[C@@H]1CC=CCC[C@H](NC(=O)CC(C)C)C(=O)N[C@@H]([C@@H](C)O)C(=O)N[C@@H](Cc2c[nH]cn2)C(=O)N[C@@H](C(c2ccccc2)c2ccccc2)C(=O)N2CCC[C@H]2C(=O)N[C@@H](C)C(=O)N[C@@H]([C@@H](C)CC)C(=O)N1)C(=O)N[C@@H](CCCNC(=N)N)C(N)=O` [Compd 22] are 1 to 10 nM and 10 to 100 nM.
Turning to `CCCCCCCCCCCCCCCC(=O)NCCCCCC(=O)NCCCC[C@@H]1NC(=O)[C@@H]2CCCN2C(=O)[C@H](C(c2ccccc2)c2ccccc2)NC(=O)[C@H](Cc2c[nH]cn2)NC(=O)[C@H]([C@@H](C)O)NC(=O)[C@@H](NC(=O)CC(C)C)CCCC=CCCC[C@@H](C(=O)N[C@H](CC(=O)N[C@H](CCCCN)C(N)=O)Cc2ccccc2)NC(=O)[C@H]([C@@H](C)CC)NC1=O` [Compd 33], the IC50 (in assay [1]; at ferroportin) was 1 to 10 nM throughout.
On to `CCCCCCCCCCCCCCCC(=O)NCCCCCC(=O)NCCCC[C@@H]1NC(=O)[C@H](C)NC(=O)[C@@H]2CCCN2C(=O)[C@H](C(c2ccccc2)c2ccccc2)NC(=O)[C@H](Cc2c[nH]cn2)NC(=O)[C@H]([C@@H](C)O)NC(=O)[C@@H](NC(=O)CC(C)C)CCC=CCC[C@@H](C(=O)N[C@H](CC(N)=O)Cc2ccccc2)NC1=O` [Compd 25] (Isovaleryl-[Hag]TH[Dip]PAK([Ahx-Palmitoyl])[Hag][β3hF]-NH2; staple 1-8), for which the IC50 (in assay [1]; at ferroportin) was 100 to 500 nM in each case.
Regarding `CCCCCCCCCCCCCCCC(=O)NCCCCCC(=O)NCCCC[C@H](NC(=O)[C@@H]1CCC=CCC[C@H](NC(=O)CC(C)C)C(=O)N[C@@H]([C@@H](C)O)C(=O)N[C@@H](Cc2c[nH]cn2)C(=O)N[C@@H](C(c2ccccc2)c2ccccc2)C(=O)N2CCC[C@H]2C(=O)N[C@@H](C)C(=O)N[C@@H]([C@@H](C)CC)C(=O)N1)C(N)=O` [Compd 18] (Isovaleryl-[Hag]TH[Dip]PAI[Hag]K([Ahx-Palmitoyl])-NH2; staple 1-8), the IC50 in assay [1] was 100 to 500 nM; on ferroportin, 10 to 100 nM.
Turning to `CCCCCCCCCCCCCCCC(=O)NCCCCCC(=O)NCCCC[C@H](NC(=O)C[C@H](Cc1ccccc1)NC(=O)[C@@H]1CCC=CCC[C@H](NC(=O)CC(C)C)C(=O)N[C@@H]([C@@H](C)O)C(=O)N[C@@H](Cc2c[nH]cn2)C(=O)N[C@@H](C(c2ccccc2)c2ccccc2)C(=O)N2CCC[C@H]2C(=O)N[C@@H](C)C(=O)N[C@@H](CC(C)(C)C)C(=O)N1)C(=O)N[C@H](CCCCN)C(N)=O` [Compd 63] (Isovaleryl-[Hag]TH[Dip]PA[tBuAla][Hag][β3hF]K([Ahx-Palmitoyl])[dK]-NH2; staple 1-8), the IC50 (in assay [1]; at ferroportin) was 1 to 10 nM in each case.
Turning to `CCCCCCCCCCCCCCCC(=O)NCCCCCC(=O)NCCCC[C@H](NC(=O)C[C@H](Cc1ccccc1)NC(=O)[C@@H]1CCCC=CCC[C@@H](NC(=O)CC(C)C)C(=O)N[C@@H]([C@@H](C)O)C(=O)N[C@@H](Cc2c[nH]cn2)C(=O)N[C@@H](C(c2ccccc2)c2ccccc2)C(=O)N2CCC[C@H]2C(=O)N[C@@H](C)C(=O)N[C@@H]([C@@H](C)CC)C(=O)N1)C(=O)N[C@H](CCCCN)C(N)=O` [Compd 67], the IC50 in assay [1] fell in the range of 1 to 10 nM; at ferroportin, 10 to 100 nM.
Turning to `CCCCCCCCCCCCCCCC(=O)NCCCCCC(=O)NCCCC[C@H](NC(=O)C[C@H](Cc1ccccc1)NC(=O)[C@@H]1CCC=CC[C@H](NC(=O)CC(C)C)C(=O)N[C@@H]([C@@H](C)O)C(=O)N[C@@H](Cc2c[nH]cn2)C(=O)N[C@@H](C(c2ccccc2)c2ccccc2)C(=O)N2CCC[C@H]2C(=O)N[C@@H](C)C(=O)N[C@@H]([C@@H](C)CC)C(=O)N1)C(=O)N[C@H](CCCCN)C(N)=O` [Compd 27], the IC50 (in assay [1]; on ferroportin) was 10 to 100 nM in each case.
`CCCCCCCCCCCCCCCC(=O)NCCCCCC(=O)NCCCC[C@H](NC(=O)C[C@H](Cc1ccccc1)NC(=O)[C@@H]1CCC=CCC[C@H](NC(=O)CC(C)C)C(=O)N[C@@H]([C@@H](C)O)C(=O)N[C@@H](Cc2c[nH]cn2)C(=O)N[C@@H](C(c2ccccc2)c2ccccc2)C(=O)N2CCC[C@H]2C(=O)N(C)[C@@H](C)C(=O)N[C@@H]([C@@H](C)CC)C(=O)N1)C(=O)N[C@H](CCCCN)C(N)=O` [Compd 52]: the IC50 (in assay [1]; at ferroportin) was 10 to 100 nM each time.
Take `CCCCCCCCCCCCCCCC(=O)NCCCCCC(=O)NCCCC[C@H](NC(=O)C[C@H](Cc1ccccc1)NC(=O)[C@H]1CCC=CCCC[C@@H](NC(=O)CC(C)C)C(=O)N[C@@H]([C@@H](C)O)C(=O)N[C@@H](Cc2c[nH]cn2)C(=O)N[C@@H](C(c2ccccc2)c2ccccc2)C(=O)N2CCC[C@H]2C(=O)N[C@@H](C)C(=O)N[C@@H]([C@@H](C)CC)C(=O)N1)C(=O)N[C@H](CCCCN)C(N)=O` [Compd 74]: the IC50 in assay [1] was 100 to 500 nM; on ferroportin, greater than 500 nM.
Regarding `CCCCCCCCCCCCCCCC(=O)NCCCCCC(=O)NCCCC[C@H](NC(=O)C[C@H](Cc1ccccc1)NC(=O)[C@@H]1CCC=CCC[C@H](NC(=O)CC(C)C)C(=O)N[C@@H]([C@@H](C)O)C(=O)N[C@@H](C)C(=O)N[C@@H](C(c2ccccc2)c2ccccc2)C(=O)N2CCC[C@H]2C(=O)N[C@@H](C)C(=O)N[C@@H]([C@@H](C)CC)C(=O)N1)C(=O)N[C@H](CCCCN)C(N)=O` [Compd 42] (Isovaleryl-[Hag]TA[Dip]PAI[Hag][β3hF]K([Ahx-Palmitoyl])[dK]-NH2; staple 1-8), the IC50 (in assay [1]; at ferroportin) was 100 to 500 nM each time.
